Legend:
[1] = Assay 2. Stability in Simulated Intestinal Fluid (SIF); type: in vitro ADME; conditions: 1 μM, 37° C., SIF pH 6.7 with pancreatin
Description: Assay 2. Stability of acylated active agents in Simulated Intestinal Fluid (SIF). This assay was used to assess the stability of an acylated active agent in a small intestine.
Phosphate buffer was prepared by dissolving 0.42 g of sodium hydroxide pellets and 3.95 g of monobasic sodium phosphate monohydrate and 6.19 g of sodium chloride in ultrapure water (MilliQ®, Millipore Sigma, Darmstadt, Germany). The pH was adjusted to 6.7 using aq. HCl and aq. NaOH, as necessary, and the solution was diluted with ultrapure water to produce 1 L of the pH 6.7 buffer.
112 mg FaSSIF powder (Biorelevant™, London, UK) was dissolved in 50 mL of the pH 6.7 buffer. 2 to 3 mL of the resulting solution were then added to 500 mg pancreatin (Millipore Sigma, Darmstadt, Germany). The resulting mixture was agitated by finger tapping the vessel containing the mixture until milky suspension formed. At this time, the remainder of the 50 mL FaSSiF/pH 6.7 buffer solution was added. The resulting suspension was flipped upside down 10 times to produce SIF, which was used fresh.
(§1) Test compounds were dissolved in DMSO stock to 1 mM. An aliquot of the DMSO stock solution was removed and diluted in the SIF media in 15 mL falcon tubes to produce a mixture with a tested compound concentration of 1 μM. A 1 mL aliquot was immediately removed and diluted once with 1 volume of acetonitrile for T0 timepoint. The mixture was sealed and agitated at 37° C. in an incubator. Aliquots (1 mL) were removed at regular intervals and immediately quenched by the addition of 1 volume of acetonitrile. The resulting samples were analyzed by LC/MS to determine degradation rates.

[2] = Assay 1. Stability in Simulated Gastric Fluid (SGF); type: in vitro ADME; conditions: 1 μM, 37° C., SGF pH 1.6 with pepsin
Description: Assay 1. Stability of acylated active agents in Simulated Gastric Fluid (SGF). This assay was used to assess the stability of an acylated active agent in a stomach.
Medium was prepared by dissolving 2 g of sodium chloride in 0.6 L of ultrapure water (MilliQ®, Millipore Sigma, Darmstadt, Germany). The pH was adjusted to 1.6 with 1N hydrochloric acid, and the volume was then adjusted to 1 L with purified water.
60 mg FaSSIF powder (Biorelevant™, London, UK) were dissolved in 500 mL buffer (above). Pepsin was added (0.1 mg/mL) (Millipore Sigma, Darmstadt, Germany), and the solution was stirred. The resulting SGF media were used fresh for each experiment.
as §1, with “SGF Media” for “SIF media”, “generate” for “produce”, “a” for “a mixture with a tested”, “mixed” for “agitated”, “rates in SGF.” for “rates.”

Row | Structure (SMILES) | Assay 2 (SIF) (% @ Remaining 4 hours) [1] | Assay 1 (SGF) (% Remaining @ 1 hours) [2]
1 | CCCC(=O)O[C@@H]1[C@@H](OC(=O)CCC)[C@H](Oc2ccc(N)cc2C(=O)O)OC[C@H]1OC(=O)CCC [Compound 34, 5-amino-2-[(2S,3R,4S,5R)-3,4,5-tri(butanoyloxy)tetrahydropyran-2-yl]oxy-benzoic Acid] | C (C: >75% of the tested compound remaining) | C (C: >75% of the tested compound remaining)
2 | CCC(=O)OC[C@H]1OC(O)[C@H](OC(=O)CC)[C@@H](OC(=O)CC)[C@@H]1OC(=O)CC (stereo partly drawn) [Compound 142, [(2R,3R,4S,5R)-6-hydroxy-3,4,5-tris(propanoyloxy)oxan-2-yl]methyl Propanoate] | A (A: <25% of the tested compound remaining) | C (C: >75% of the tested compound remaining)
3 | C[C@@H]1CCOC(C)(C(=O)Oc2ccc(/C=C/c3cc(OC(=O)C4(C)OCC[C@@H](C)O4)cc(OC(=O)C4(C)OCC[C@@H](C)O4)c3)cc2)O1 (stereo partly drawn) [Compound 65, [4-[(E)-2-[3,5-bis[[(4R)-2,4-dimethyl-1,3-dioxane-2-carbonyl]oxy]phenyl]vinyl]phenyl] (4R)-2,4-dimethyl-1,3-dioxane-2-carboxylate] | C (C: >75% of the tested compound remaining) | C (C: >75% of the tested compound remaining)
4 | CCCC(=O)O[C@H](C)CCOC(=O)Oc1ccc(/C=C/c2cc(OC(=O)OCC[C@@H](C)OC(=O)CCC)cc(OC(=O)OCC[C@@H](C)OC(=O)CCC)c2)cc1 [Compound 75, (2R,2′R)-((((5-((E)-4-((((R)-3-(butyryloxy)butoxy)carbonyl)oxy)styryl)-1,3-phenylene)bis(oxy))bis(carbonyl))bis(oxy))bis(butane-4,2-diyl) dibutyrate] | B (B: 25-75% of the tested compound remaining) | C (C: >75% of the tested compound remaining)
5 | CCCC(=O)O[C@H]1[C@@H](Oc2ccc(N)cc2C(=O)O)OC[C@@H](OC(=O)CCC)[C@H]1OC(=O)CCC [Compound 41, 5-amino-2-(((2R,3R,4R,5R)-3,4,5-tris(butyryloxy)tetrahydro-2H-pyran-2-yl)oxy)benzoic Acid] | C (C: >75% of the tested compound remaining) | C (C: >75% of the tested compound remaining)
6 | CCCC(=O)OC[C@@H](OC(=O)CCC)[C@@H](OC(=O)CCC)[C@H](OC(=O)CCC)[C@@H](OC(=O)CCC)C(=O)Oc1ccc(/C=C/c2cc(OC(=O)[C@H](OC(=O)CCC)[C@@H](OC(=O)CCC)[C@H](OC(=O)CCC)[C@@H](COC(=O)CCC)OC(=O)CCC)cc(OC(=O)[C@H](OC(=O)CCC)[C@@H](OC(=O)CCC)[C@H](OC(=O)CCC)[C@@H](COC(=O)CCC)OC(=O)CCC)c2)cc1 [Compound 19, [4-[(E)-2-[3,5-bis[[(2R,3S,4R,5R)-2,3,4,5,6-penta(butanoyloxy)hexanoyl]oxy]phenyl]vinyl]phenyl] (2R,3S,4R,5R)-2,3,4,5,6-penta(butanoyloxy)hexanoate] | B (B: 25-75% of the tested compound remaining) | B (B: 25-75% of the tested compound remaining)
7 | C=C1CC[C@H](OC(=O)C2OCC[C@@H](C)O2)C/C1=C/C=C1\CCC[C@]2(C)[C@@H]([C@H](C)CCCC(C)C)CC[C@@H]12 (stereo partly drawn) [Compound 69, [(1 S,3Z)-3-[(2E)-2-[(1R,3aS,7aR)-1-[(1R)-1,5-dimethylhexyl]-7a-methyl-2,3,3a,5,6,7-hexahydro-1H-inden-4-ylidene]ethylidene]-4-methylene-cyclohexyl] (4R)-4-methyl-1,3-dioxane-2-carboxylate] | C (C: >75% of the tested compound remaining) | C (C: >75% of the tested compound remaining)
8 | CCC(=O)OC1O[C@@H](C)[C@@H](OC(=O)CC)[C@@H](OC(=O)CC)[C@@H]1OC(=O)CC (stereo partly drawn) [Compound 157, (3S,4R,5R,6S)-6-methyl-3,4,5-tris(propanoyloxy)oxan-2-yl Propanoate] | A (A: <25% of the tested compound remaining) | C (C: >75% of the tested compound remaining)
9 | CCCC(=O)Oc1ccc([C@@H]2CC(=O)c3c(OC(=O)CCC)cc(OC(=O)CCC)cc3O2)cc1 [Compound 22, (S)-2-(4-(butyryloxy)phenyl)-4-oxochromane-5,7-diyl dibutyrate] | A (A: <25% of the tested compound remaining) | B (B: 25-75% of the tested compound remaining)
10 | CC(=O)Oc1cc(OC(C)=O)c2c(=O)c(OC(C)=O)c(-c3cc(OC(C)=O)c(OC(C)=O)c(OC(C)=O)c3)oc2c1 [Compound 23, [3,5-diacetoxy-4-oxo-2-(3,4,5-triacetoxyphenyl)chromen-7-yl] acetate] | A (A: <25% of the tested compound remaining) | C (C: >75% of the tested compound remaining)
11 | CCC(=O)O[C@H](C)CCOC(=O)Oc1ccc(/C=C/c2cc(OC(=O)OCC[C@@H](C)OC(=O)CC)cc(OC(=O)OCC[C@@H](C)OC(=O)CC)c2)cc1 [Compound 77, (2R,2′R)-((((5-((E)-4-((((R)-3-(propionyloxy)butoxy)carbonyl)oxy)styryl)-1,3-phenylene)bis(oxy))bis(carbonyl))bis(oxy))bis(butane-4,2-diyl) dipropionate] | A (A: <25% of the tested compound remaining) | B (B: 25-75% of the tested compound remaining)
12 | CC(=O)Oc1cc(C(=O)O)cc(OC(C)=O)c1OC(C)=O [Compound 44, 3,4,5-triacetoxybenzoic Acid] | B (B: 25-75% of the tested compound remaining) | C (C: >75% of the tested compound remaining)
13 | O=C(CCc1c[nH]c2ccccc12)Oc1cc(C(=O)O)cc(OC(=O)CCc2c[nH]c3ccccc23)c1OC(=O)CCc1c[nH]c2ccccc12 [Compound 240, 3,4,5-tris({[3-(1H-indol-3-yl)propanoyl]oxy})benzoic Acid] | C (C: >75% of the tested compound remaining) | A (A: <25% of the tested compound remaining)
14 | CCC(=O)OC1OC[C@@H](OC(=O)CC)[C@H](OC(=O)CC)[C@H]1OC(=O)CC (stereo partly drawn) [Compound 162, (3R,4S,5R)-3,4,5-tris(propanoyloxy)oxan-2-yl Propanoate] | A (A: <25% of the tested compound remaining) | C (C: >75% of the tested compound remaining)
15 | CCCC(=O)Oc1cc(OC(=O)CCC)c2c(=O)c(OC(=O)CCC)c(-c3cc(OC(=O)CCC)c(OC(=O)CCC)c(OC(=O)CCC)c3)oc2c1 [Compound 200, 3,5-bis(butanoyloxy)-4-oxo-2-[3,4,5-tris(butanoyloxy)phenyl]-4H-chromen-7-yl Butanoate] | C (C: >75% of the tested compound remaining) | C (C: >75% of the tested compound remaining)
16 | CCCC(=O)O[C@H](C)CC(=O)Oc1ccc(/C=C/c2cc(OC(=O)C[C@@H](C)OC(=O)CCC)cc(OC(=O)C[C@@H](C)OC(=O)CCC)c2)cc1 [Compound 13, [4-[(E)-2-[3,5-bis[[(3R)-3-butanoyloxybutanoyl]oxy]phenyl]vinyl]phenyl] (3R)-3-butanoyloxy-butanoate] | B (B: 25-75% of the tested compound remaining) | C (C: >75% of the tested compound remaining)
17 | CCCC(=O)Oc1ccc(/N=N/c2ccc(OC(=O)CCC)c(C(=O)O)c2)cc1C(=O)O [Compound 32, 2-butanoyloxy-5-[(E)-(4-butanoyloxy-3-carboxy-phenyl)azo]benzoic Acid] | A (A: <25% of the tested compound remaining) | A (A: <25% of the tested compound remaining)
18 | CCCC(=O)O[C@H]1[C@@H](OC(=O)CCC)COC(O)[C@@H]1OC(=O)CCC (stereo partly drawn) [Compound 72, (3R,4S,5S)-2-hydroxytetrahydro-2H-pyran-3,4,5-triyl Tributyrate] | A (A: <25% of the tested compound remaining) | C (C: >75% of the tested compound remaining)
